Columns and labels:
[1] = Inhibition of SDHB in human U2OS cells over-expressing Bim assessed as inhibition of apoptosis preincubated for 1 hr followed by doxycyclin addition to induce Bim protein expression measured after 24 hrs by Cell Titer-Glo assay
[2] = Inhibition of SDHB in human U2OS cells over-expressing tBid assessed as reduction in apoptosis preincubated for 1 hr followed by doxycyclin addition to induce tBid protein expression measured after 24 hrs by Cell Titer-Glo assay

Row | SMILES | EC50 [1] [nM] | EC50 [2] [nM]
1 | CS(=O)(=O)c1nc(-c2ccc(=O)n(Cc3ccc(C#N)cc3)c2)cc(C(F)(F)F)n1 | 3490 | 
2 | CS(=O)(=O)c1nc(-c2ccc(=O)n(Cc3cccc(C#N)c3)c2)cc(C(F)(F)F)n1 | 4060 | 
3 | C#Cc1cccc(Cn2cc(-c3cc(C(F)(F)F)nc(S(C)(=O)=O)n3)ccc2=O)c1 | 4480 | 
4 | CS(=O)(=O)c1nc(-c2ccc(=O)n(Cc3cccc(O)c3)c2)cc(C(F)(F)F)n1 | 1820 | 
5 | CS(=O)(=O)c1nc(-c2ccc(=O)n(Cc3ccccc3Cl)c2)cc(C(F)(F)F)n1 | 1140 | 
6 | CS(=O)(=O)c1nc(-c2ccc(=O)n(Cc3ccccc3)c2)cc(C(F)(F)F)n1 | 1160 | 
7 | CS(=O)(=O)c1nc(-c2cccc(Oc3ccccc3)c2)cc(C(F)(F)F)n1 | 8760 | 
8 | CN(C)C(=O)c1cccc(-c2cc(C(F)(F)F)nc(S(C)(=O)=O)n2)c1 | > 20000 | 
9 | Cc1ccc(-c2cc(C(F)(F)F)nc(S(C)(=O)=O)n2)cc1 | 6360 | 
10 | Cc1cccc(-c2cc(C(F)(F)F)nc(S(C)(=O)=O)n2)c1 | 3490 | 
11 | Cc1ccccc1-c1cc(C(F)(F)F)nc(S(C)(=O)=O)n1 | 6640 | 
12 | CS(=O)(=O)c1nc(-c2cccs2)cc(C2CCC(=O)N2)n1 (centres undefined) | > 20000 | 
13 | CS(=O)(=O)c1nc(-c2cccs2)cc(-c2cccs2)n1 | > 20000 | 
14 | Cc1cc(-c2cccs2)nc(S(C)(=O)=O)n1 | > 20000 | 
15 | O=S(=O)(Cc1ccc(-c2ccccc2)cc1)c1nc(-c2cccs2)cc(C(F)(F)F)n1 | 4210 | 
16 | CCOC(=O)CCS(=O)(=O)c1nc(-c2cccs2)cc(C(F)(F)F)n1 | 1140 | 
17 | CCS(=O)(=O)c1nc(-c2cccs2)cc(C(F)(F)F)n1 | 1430 | 
18 | COC(=O)c1cccc(-c2cc(C(F)(F)F)nc(S(C)(=O)=O)n2)c1 | 3520 | 
19 | COC(=O)c1ccccc1-c1cc(C(F)(F)F)nc(S(C)(=O)=O)n1 | 7030 | 
20 | Cc1ccc(O)c(NC(=O)CCCS(=O)(=O)c2nc(-c3cccs3)cc(C(F)(F)F)n2)c1 | 4000 | 
21 | COc1ccc(Cn2cc(-c3cc(C(F)(F)F)nc(S(=O)(=O)CCCC(N)=O)n3)ccc2=O)cc1OC | > 20000 | 
22 | C#Cc1ccc(Cn2cc(-c3cc(C(F)(F)F)nc(S(C)(=O)=O)n3)ccc2=O)cc1 | 817 | 
23 | CS(=O)(=O)c1nc(-c2ccc(=O)[nH]c2)cc(C(F)(F)F)n1 | > 20000 | 
24 | COC(=O)c1ccc(-c2cc(C(F)(F)F)nc(S(C)(=O)=O)n2)cc1 | > 20000 | 
25 | CS(=O)(=O)c1nc(N=[N+]=[N-])cc(-c2cccs2)n1 | > 20000 | 
26 | O=S(=O)(CCc1ccccc1)c1nc(-c2cccs2)cc(C(F)(F)F)n1 | 1590 | 
27 | CS(=O)(=O)c1nc(-c2ccccc2)cc(C(F)(F)F)n1 [MLS000044644] | 2200 | 
28 | CS(=O)(=O)c1nc(-c2cccs2)cc(C(F)(F)F)n1 [MLS000044645] | 749 | 

These reach a lower EC50 [1]. Values come first.

Row | EC50 [1] [nM] | EC50 [2] [nM] | SMILES
29 | 364 |  | CCCCCS(=O)(=O)c1nc(-c2ccc(=O)n(Cc3ccc(OC)c(OC)c3)c2)cc(C(F)(F)F)n1
30 | 282 |  | COCCCS(=O)(=O)c1nc(-c2ccc(=O)n(Cc3ccc(OC)c(OC)c3)c2)cc(C(F)(F)F)n1
31 | 257 |  | CS(=O)(=O)c1nc(-c2ccc(=O)n(Cc3cccc(Cl)c3)c2)cc(C(F)(F)F)n1
32 | 253 |  | CCCCCCCS(=O)(=O)c1nc(-c2ccc(=O)n(Cc3ccc(OC)c(OC)c3)c2)cc(C(F)(F)F)n1
33 | 216 |  | COCCS(=O)(=O)c1nc(-c2ccc(=O)n(Cc3ccc(OC)c(OC)c3)c2)cc(C(F)(F)F)n1
34 | 164 |  | COc1ccc(Cn2cc(-c3cc(C(F)(F)F)nc(S(=O)(=O)CCCC(=O)N(C)C)n3)ccc2=O)cc1OC
35 | 110 |  | CCOc1cccc(Cn2cc(-c3cc(C(F)(F)F)nc(S(C)(=O)=O)n3)ccc2=O)c1
36 | 94 |  | COc1ccc(Cn2cc(-c3cc(C(F)(F)F)nc(S(C)(=O)=O)n3)ccc2=O)cc1
37 | 69 |  | CCCOc1cccc(Cn2cc(-c3cc(C(F)(F)F)nc(S(C)(=O)=O)n3)ccc2=O)c1
38 | 66 |  | CS(=O)(=O)c1nc(-c2ccc(=O)n(Cc3ccc(Cl)cc3)c2)cc(C(F)(F)F)n1
39 | 57 |  | COc1cccc(Cn2cc(-c3cc(C(F)(F)F)nc(S(C)(=O)=O)n3)ccc2=O)c1
40 | 27 |  | COc1ccc(Cn2cc(-c3cc(C(F)(F)F)nc(S(=O)(=O)CCCC(=O)N4CCCC4)n3)ccc2=O)cc1OC
41 | 25 |  | COc1ccc(Cn2cc(-c3cc(C(F)(F)F)nc(S(C)(=O)=O)n3)ccc2=O)cc1OC
42 | 1.4 |  | COc1ccc(Cn2cc(-c3cc(C(F)(F)F)nc(S(=O)(=O)CCCC(=O)N4CCCCC4)n3)ccc2=O)cc1OC
43 | 0.42 | 0.23 | COc1ccc(Cn2cc(-c3cc(C(F)(F)F)nc(S(=O)(=O)CCCC(=O)NC45CC6CC(CC(C6)C4)C5)n3)ccc2=O)cc1OC
